Measured values: patent publication US10710978B2, “STK4 inhibitors for treatment of hematologic malignancies” (Dana-Farber Cancer Institute, Inc., priority 2015, dated 2020)
Where two headings read alike, the source gives them in different places.

Assays:
Assay in all cases: KiNativ assay
Assay type in all cases: binding
CDK9 = CDK9 (Homo sapiens (Human), UniProt P50750); details: H929 live cell
How it was run: (§1)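 Screening used intact H929 cells treated with each compound at 10 μM in duplicate; KiNativ labelling followed, and MS quantitation yielded IC50.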

QSK = QSK (Homo sapiens (Human), UniProt Q9Y2K2); details: H929 live cell
How it was run: as §1

GPRK5 = GPRK5 (Homo sapiens (Human), UniProt P34947); details: H929 live cell
How it was run: (§2)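 Duplicate 10 μM treatment of H929 cells (live); MS-based KiNativ readout; IC50 reported.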

ARAF = ARAF (Homo sapiens (Human), UniProt P10398); details: H929 live cell
How it was run: as §1

MAP2K2 = MAP2K2 (Homo sapiens (Human), UniProt P36507); details: H929 live cell
How it was run: as §2

SGK2 = SGK2 (Homo sapiens (Human), UniProt Q9HBY8); details: H929 live cell
How it was run: as §1

CK1d, CK1e = details: H929 live cell; for % inhibition (range): 10 μM
How it was run: as §2

ROCK1, ROCK2 = details: H929 live cell; for % inhibition (range): 10 μM
How it was run: as §1

Chain of GPRK5 (P34947 whole entry): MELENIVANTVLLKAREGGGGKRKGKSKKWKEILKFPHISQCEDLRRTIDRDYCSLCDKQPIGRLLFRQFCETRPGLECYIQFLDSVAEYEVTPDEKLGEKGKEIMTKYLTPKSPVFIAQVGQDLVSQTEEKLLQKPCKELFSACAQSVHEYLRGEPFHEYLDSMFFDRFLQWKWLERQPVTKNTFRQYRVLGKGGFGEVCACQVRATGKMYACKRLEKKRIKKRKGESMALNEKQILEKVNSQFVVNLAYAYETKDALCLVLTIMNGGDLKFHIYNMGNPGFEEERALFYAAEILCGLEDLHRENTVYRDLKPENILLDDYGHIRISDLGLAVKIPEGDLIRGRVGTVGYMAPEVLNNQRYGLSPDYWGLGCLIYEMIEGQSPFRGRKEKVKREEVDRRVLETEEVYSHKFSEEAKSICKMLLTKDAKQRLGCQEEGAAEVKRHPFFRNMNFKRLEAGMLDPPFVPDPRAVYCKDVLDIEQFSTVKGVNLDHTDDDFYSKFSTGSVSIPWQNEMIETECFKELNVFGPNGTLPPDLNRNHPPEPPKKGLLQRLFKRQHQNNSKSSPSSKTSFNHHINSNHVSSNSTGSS
Chain of MAP2K2 (P36507 whole entry): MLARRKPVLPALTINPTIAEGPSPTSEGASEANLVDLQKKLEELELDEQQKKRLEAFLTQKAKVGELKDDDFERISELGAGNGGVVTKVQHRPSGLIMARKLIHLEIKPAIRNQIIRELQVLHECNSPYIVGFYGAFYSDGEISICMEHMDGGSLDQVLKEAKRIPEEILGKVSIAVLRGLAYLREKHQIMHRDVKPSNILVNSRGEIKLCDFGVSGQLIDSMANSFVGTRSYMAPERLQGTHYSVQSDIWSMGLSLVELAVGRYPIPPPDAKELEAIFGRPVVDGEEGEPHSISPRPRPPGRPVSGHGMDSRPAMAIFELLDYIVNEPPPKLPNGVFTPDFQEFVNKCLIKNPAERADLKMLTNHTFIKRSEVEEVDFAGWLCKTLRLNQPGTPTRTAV
Chain of CDK9 (P50750 whole entry): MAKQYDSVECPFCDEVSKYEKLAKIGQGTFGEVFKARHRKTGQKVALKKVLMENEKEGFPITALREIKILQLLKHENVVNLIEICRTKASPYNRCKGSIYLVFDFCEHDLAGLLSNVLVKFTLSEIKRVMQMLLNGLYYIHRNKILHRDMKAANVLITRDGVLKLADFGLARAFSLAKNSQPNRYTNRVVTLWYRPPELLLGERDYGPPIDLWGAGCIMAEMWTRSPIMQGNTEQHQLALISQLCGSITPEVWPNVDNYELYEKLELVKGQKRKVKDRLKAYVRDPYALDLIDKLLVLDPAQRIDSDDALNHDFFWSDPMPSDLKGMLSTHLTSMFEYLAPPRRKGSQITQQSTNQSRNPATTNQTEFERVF
Chain of CDK9 (O60563 whole entry partner): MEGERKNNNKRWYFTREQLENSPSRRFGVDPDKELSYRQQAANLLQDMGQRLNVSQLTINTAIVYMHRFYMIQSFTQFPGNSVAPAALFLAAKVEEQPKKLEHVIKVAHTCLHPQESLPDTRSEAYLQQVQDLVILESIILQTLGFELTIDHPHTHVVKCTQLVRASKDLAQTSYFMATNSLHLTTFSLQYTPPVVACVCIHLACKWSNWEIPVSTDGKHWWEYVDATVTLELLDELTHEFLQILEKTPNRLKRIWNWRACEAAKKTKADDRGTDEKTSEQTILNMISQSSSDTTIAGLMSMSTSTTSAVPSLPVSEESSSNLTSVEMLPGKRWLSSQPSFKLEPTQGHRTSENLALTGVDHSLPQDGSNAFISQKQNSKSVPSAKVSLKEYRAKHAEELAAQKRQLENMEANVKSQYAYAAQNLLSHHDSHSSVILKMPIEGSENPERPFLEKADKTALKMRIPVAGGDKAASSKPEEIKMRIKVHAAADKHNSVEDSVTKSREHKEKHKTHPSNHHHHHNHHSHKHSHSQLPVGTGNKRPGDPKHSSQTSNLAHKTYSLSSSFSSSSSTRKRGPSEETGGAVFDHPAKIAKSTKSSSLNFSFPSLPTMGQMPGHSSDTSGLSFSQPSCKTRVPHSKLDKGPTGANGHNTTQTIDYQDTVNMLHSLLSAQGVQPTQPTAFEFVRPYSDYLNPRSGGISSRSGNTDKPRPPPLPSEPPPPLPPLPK
Chain of SGK2 (Q9HBY8 whole entry): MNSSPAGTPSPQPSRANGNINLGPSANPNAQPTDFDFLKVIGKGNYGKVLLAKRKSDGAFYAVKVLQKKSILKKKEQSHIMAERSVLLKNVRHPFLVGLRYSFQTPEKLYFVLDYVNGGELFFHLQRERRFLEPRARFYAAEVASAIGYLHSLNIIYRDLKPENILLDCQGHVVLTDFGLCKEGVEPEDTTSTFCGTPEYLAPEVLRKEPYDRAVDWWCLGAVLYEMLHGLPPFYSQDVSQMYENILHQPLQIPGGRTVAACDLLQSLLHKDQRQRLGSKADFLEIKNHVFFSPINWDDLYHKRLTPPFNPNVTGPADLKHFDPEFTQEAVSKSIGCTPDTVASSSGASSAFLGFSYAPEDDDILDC
Chain of ARAF (P10398 whole entry): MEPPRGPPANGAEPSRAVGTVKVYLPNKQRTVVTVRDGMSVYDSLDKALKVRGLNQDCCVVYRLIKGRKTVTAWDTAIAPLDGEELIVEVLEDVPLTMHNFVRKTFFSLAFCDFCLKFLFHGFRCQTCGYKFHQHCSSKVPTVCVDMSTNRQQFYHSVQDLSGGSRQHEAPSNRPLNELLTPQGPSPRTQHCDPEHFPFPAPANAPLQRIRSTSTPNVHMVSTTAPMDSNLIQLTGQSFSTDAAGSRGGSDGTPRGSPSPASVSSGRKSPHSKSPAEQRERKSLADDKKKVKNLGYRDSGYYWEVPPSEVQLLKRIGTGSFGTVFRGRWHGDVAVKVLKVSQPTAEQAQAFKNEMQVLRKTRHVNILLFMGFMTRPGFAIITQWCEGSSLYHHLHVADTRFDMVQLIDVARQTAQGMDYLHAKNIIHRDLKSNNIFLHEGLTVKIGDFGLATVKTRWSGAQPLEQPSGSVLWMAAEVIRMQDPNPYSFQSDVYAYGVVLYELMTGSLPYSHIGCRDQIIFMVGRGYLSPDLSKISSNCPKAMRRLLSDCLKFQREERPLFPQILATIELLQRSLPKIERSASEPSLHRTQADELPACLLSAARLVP
Chain of QSK (Q9Y2K2 whole entry): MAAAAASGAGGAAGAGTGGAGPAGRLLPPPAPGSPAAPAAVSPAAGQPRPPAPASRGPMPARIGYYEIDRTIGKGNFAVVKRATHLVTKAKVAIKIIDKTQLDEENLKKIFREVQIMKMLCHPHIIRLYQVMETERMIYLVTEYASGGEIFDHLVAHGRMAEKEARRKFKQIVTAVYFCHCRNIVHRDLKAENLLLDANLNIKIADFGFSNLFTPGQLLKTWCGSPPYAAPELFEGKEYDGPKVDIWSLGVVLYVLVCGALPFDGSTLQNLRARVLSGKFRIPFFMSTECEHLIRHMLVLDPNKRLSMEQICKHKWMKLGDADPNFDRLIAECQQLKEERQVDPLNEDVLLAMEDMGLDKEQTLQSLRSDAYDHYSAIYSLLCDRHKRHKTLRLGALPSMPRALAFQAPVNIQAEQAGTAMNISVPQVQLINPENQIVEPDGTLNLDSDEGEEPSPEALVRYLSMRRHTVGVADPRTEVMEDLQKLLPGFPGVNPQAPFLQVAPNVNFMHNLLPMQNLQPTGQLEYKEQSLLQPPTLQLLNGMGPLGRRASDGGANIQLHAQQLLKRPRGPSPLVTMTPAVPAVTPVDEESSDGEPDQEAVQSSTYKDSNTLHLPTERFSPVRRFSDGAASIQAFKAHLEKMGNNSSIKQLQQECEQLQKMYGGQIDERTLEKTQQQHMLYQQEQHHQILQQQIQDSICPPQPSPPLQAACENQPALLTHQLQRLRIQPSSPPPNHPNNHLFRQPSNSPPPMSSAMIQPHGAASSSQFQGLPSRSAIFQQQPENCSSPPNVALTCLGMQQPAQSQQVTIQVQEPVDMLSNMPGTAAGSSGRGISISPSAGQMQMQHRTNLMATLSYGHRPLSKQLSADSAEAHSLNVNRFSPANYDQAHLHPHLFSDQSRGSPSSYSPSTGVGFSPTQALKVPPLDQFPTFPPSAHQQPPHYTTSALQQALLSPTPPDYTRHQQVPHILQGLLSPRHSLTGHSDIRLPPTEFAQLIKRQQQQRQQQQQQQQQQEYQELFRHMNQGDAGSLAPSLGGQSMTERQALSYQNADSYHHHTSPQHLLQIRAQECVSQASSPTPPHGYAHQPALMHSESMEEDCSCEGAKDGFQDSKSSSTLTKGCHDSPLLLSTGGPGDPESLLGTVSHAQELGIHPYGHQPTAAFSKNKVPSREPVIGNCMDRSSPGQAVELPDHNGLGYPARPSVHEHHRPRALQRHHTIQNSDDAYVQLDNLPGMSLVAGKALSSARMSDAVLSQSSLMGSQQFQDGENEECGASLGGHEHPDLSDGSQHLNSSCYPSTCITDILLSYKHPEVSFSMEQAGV

Structure (SMILES)	inhibition at 10 µM (CDK9; read-out: % inhibition (range)) [%]	inhibition at 10 µM (CDK9; read-out: inhibition (10 μM)) [%]	inhibition at 10 µM (QSK; read-out: % inhibition (range)) [%]	inhibition at 10 µM (QSK; read-out: inhibition (10 μM)) [%]	inhibition at 10 µM (GPRK5; read-out: % inhibition (range)) [%]	inhibition at 10 µM (GPRK5; read-out: inhibition (10 μM)) [%]	inhibition at 10 µM (ARAF; read-out: % inhibition (range)) [%]	inhibition at 10 µM (ARAF; read-out: inhibition (10 μM)) [%]	inhibition at 10 µM (MAP2K2; read-out: % inhibition (range)) [%]	inhibition at 10 µM (MAP2K2; read-out: inhibition (10 μM)) [%]	inhibition at 10 µM (SGK2; read-out: % inhibition (range)) [%]	inhibition at 10 µM (SGK2; read-out: inhibition (10 μM)) [%]	% inhibition (range) (CK1d, CK1e)	inhibition (10 μM) (CK1d, CK1e) [%]	% inhibition (range) (ROCK1, ROCK2) [%]	inhibition (10 μM) (ROCK1, ROCK2) [%]
Nc1ncc(-c2cccc([N+](=O)[O-])c2F)cc1-c1ccc2c(c1)CCNC2=O [Compound I-9, 6-(2-amino-5-(2-fluoro-3-nitrophenyl)pyridin-3-yl)-3,4-dihydroisoquinolin-1(2H)-one]	50 to 75	65.8	50 to 75	72.8	0	19.6	0	9.5	0	-8.7	0	-5.4	>90%	>95	0.0	−55.8
Nc1ncc(-c2cccc3ncsc23)cc1-c1ccc2c(c1)CCNC2=O [Compound I-13, 6-(2-amino-5-(benzo[d]thiazol-7-yl)pyridin-3-yl)-3,4-dihydroisoquinolin-1(2H)-one]	35 to 50	41.1	35 to 50	47.8	0	-12	0	16.7	0	-36.7	0	22.1		58.9	0.0	−11.4
CN(C1CC1)S(=O)(=O)c1ccc(-c2cnc(N)c(-c3ccc4c(c3)CCNC4=O)c2)c(F)c1 [Compound I-28, 4-(6-amino-5-(1-oxo-1,2,3,4-tetrahydroisoquinolin-6-yl)pyridin-3-yl)-N-cyclopropyl-3-fluoro-N-methylbenzenesulfonamide]	0	28.9	0	30.1	0	10.7	0	8	0	-23.7	0	-30.3	50-75%	68.2	0.0	20.8
